Where no end group is shown, it is not given here.
How the values were obtained:
protein kinase C = settings: Charp et al., Biochem. Pharmacol. 37(5):951 (1988); cited from earlier work
[1] = Right angle light scattering of aqueous indolicidin; type: physicochemical; settings: 10 mM HEPES, 150 mM NaCl, pH 7.5; light scattering 500 nm, 90 degrees
Procedure: FIG. 1. Right Angle Light Scattering of Aqueous Indolicidin. […] Samples were placed in fluorescence cuvettes and the scattering of light at 500 nm wavelengths (excitation wavelength) was measured in the fluorimeter at an angle of 90 degrees.
Samples were placed in fluorescence cuvettes and light scattering at 500 nm ([…] in the fluorimeter, at a 90 degree angle.

[2] = Leakage of CAT1 probe from DSPC/Chol liposomes (ESR); settings: for % Probe in Supernatant: CAT1, 23 deg. C
Procedure: A solution of DSPC (60 mg) and cholesterol (20 mg) was dried by rotary evaporation; the dried lipids were then rehydrated with 2 ml of buffer (10 mM HEPES, 150 mM NaCl), containing 0.5 mM of the probe CAT1 (4-trimethylammmonium-2,2,6,6-tetramethylpiperidine-1-oxyl-iodide) so as to form a suspension of multilamellar liposomes containing the probe. A suspension of these vesicles was then heated for 10 min. at 65 deg. C. The sample was washed four times with HEPES buffer and resuspended in buffer to a final volume of 2 ml. […] Various amounts of this solution (see Table 1, below) were combined with an aliquot (100 μl) of the liposome preparation, with buffer then being added to bring the final volume up to 0.2 ml. Samples were microfuged, and the supernatants transferred to ESR tubes. Spectra were taken at room temperature (23 deg. C.) to determine the concentration of the probe in the supernatant samples (see Perkins et al., Biochim. Biophys. Acta. 943:103 (1988)).
The data (see Table 1, below) indicates the percent of the probe found in the supernatant, and thereby, the percent leakage from the DSPC/Chol liposomes.

[3] = Leakage of CAT1 probe from DSPC/Chol/DDAB liposomes (ESR)
Procedure: A solution of DSPC (51.6 mg), cholesterol (20.2 mg) and dimethyldioctadecyl ammonium bromide (DDAB; 8.23 mg) was dried in a round-bottom flask. The lipids were rehydrated with buffer (10 mM HEPES, 150 mM NaCl) containing 0.5 mM of the probe CAT1 so as to form a suspension of multilamellar liposomes. The suspension was heated at 65 deg. C. for 10 min and then washed twice in 10 ml of the HEPES buffer, with the final pellet comprising DSPC/Chol/DDAB multilamellar liposomes containing CAT1, being resuspended in HEPES buffer to a final volume of 2 ml. A standard phosphate assay (see Chen et al., Anal. Chem. 28:1956 (1956)) was performed to determine the amount of lipid remaining (34.12 mg).
Various amounts of this solution (see Table 2, below) were combined with an aliquot (100 μl) of the liposome suspension, the final volume of the samples being brought up to 0.2 ml with HEPES buffer. These samples were centrifuged, and aliquots of the supernatants were taken for ESR spectra determination (23 deg. C.) to measure probe leakage.

In vivo acute toxicity = assay: In vivo acute toxicity; parameters: species or system Balb/c mice; settings: for Number of Animals Dead: tail vein
Procedure: Mice were also injected with saline and with empty liposomes.

Aspergillus fumigatus = assay: Treatment of Aspergillus fumigatus infections in mice; type: in vivo, Balb/c mice; settings: 2 mg/kg, given six hours after 2×10^7 A. fumigatus spores; 15-day period
Source text: FIG. 14. Therapeutic Efficacy of Free and Liposomal Indolicidin Against Aspergillus Infections in Mice. […] The animals' survival was monitored over a period of fifteen days. Percent survival (vertical axis) is plotted against time in days (horizontal axis).
Male Balb/c mice were each injected with 2×10^7 Aspergillus fumigatus spores by injection in the tail vein. After six hours, the mice were randomly divided into five groups of 10 mice each. […] The animals' survival was monitored over a 15-day period.

HNP-3: human neutrophil protein 3, a prototypical mammalian defensin
protein kinase C activity (protein kinase C): inhibited

CC[C@H](C)[C@H](N)C(=O)N[C@@H](CC(C)C)C(=O)N1CCC[C@H]1C(=O)N[C@@H](Cc1c[nH]c2ccccc12)C(=O)N[C@@H](CCCCN)C(=O)N[C@@H](Cc1c[nH]c2ccccc12)C(=O)N1CCC[C@H]1C(=O)N[C@@H](Cc1c[nH]c2ccccc12)C(=O)N[C@@H](Cc1c[nH]c2ccccc12)C(=O)N1CCC[C@H]1C(=O)N[C@@H](Cc1c[nH]c2ccccc12)C(=O)N[C@@H](CCCNC(=N)N)C(=O)N[C@@H](CCCNC(=N)N)C(N)=O [indolicidin]
concentration at which indolicidin self-associates in solution [1]: ≥ 30000 ng/mL
% Leakage of Probe ([2]; 0.42 mole % indolicidin): 1.75%
% Probe in Supernatant ([2]; 0.42 mole % indolicidin (3.20 μl stock)): 6.14%
% Leakage of Probe ([2]; 0.82 mole % indolicidin): 1.75%
% Probe in Supernatant ([2]; 0.82 mole % indolicidin (6.30 μl stock)): 6.14%
% Leakage of Probe ([2]; 1.61 mole % indolicidin): 0.87%
% Probe in Supernatant ([2]; 1.61 mole % indolicidin (12.50 μl stock)): 5.26%
% Leakage of Probe ([2]; 3.16 mole % indolicidin): 1.75%
% Probe in Supernatant ([2]; 3.16 mole % indolicidin (25.00 μl stock)): 6.14%
% Leakage of Probe ([2]; 6.16 mole % indolicidin): 2.63%
% Probe in Supernatant ([2]; 6.16 mole % indolicidin (50.00 μl stock)): 7.02%
% Leakage of Probe ([2]; 8.93 mole % indolicidin): 1.75%
% Probe in Supernatant ([2]; 8.93 mole % indolicidin (75.00 μl stock)): 6.14%
effect of increasing indolicidin concentration on probe leakage ([2]; DSPC/Chol liposomes, 0.42-8.93 mole % indolicidin): did not significantly increase probe leakage
% Probe in Supernatant ([3]; 0.48 mole % indolicidin (3.20 μl stock), CAT1, 23 deg. C): 8.00%
% Probe in Supernatant ([3]; 0.93 mole % indolicidin (6.30 μl stock)): 8.00%
% Probe in Supernatant ([3]; 1.84 mole % indolicidin (12.50 μl stock)): 9.78%
% Probe in Supernatant ([3]; 3.61 mole % indolicidin (25.00 μl stock)): 10.67%
% Probe in Supernatant ([3]; 6.99 mole % indolicidin (50.00 μl stock)): 9.78%
% Probe in Supernatant ([3]; 10.09 mole % indolicidin (75.00 μl stock), corrected for any liposomes in the supernatant): 0%
% Probe in Supernatant ([3]; 13.04 mole % indolicidin (100.00 μl stock), corrected for any liposomes in the supernatant): 0%
Number of Animals Dead (In vivo acute toxicity; free indolicidin dose 0.4 mg/kg): 0/5
Number of Animals Dead (In vivo acute toxicity; free indolicidin dose 1.2 mg/kg): 1/5
Number of Animals Dead (In vivo acute toxicity; free indolicidin dose 4.0 mg/kg): 3/5
Number of Animals Dead (In vivo acute toxicity; free indolicidin dose 12.0 mg/kg): 0/5
LD50 (In vivo acute toxicity; male Balb/c mice, tail vein injection): 3 mg/kg
survival times of infected mice (Aspergillus fumigatus): slight increase in survival times

HNP-2: human neutrophil protein 2, a prototypical mammalian defensin (CYCRIPACIAGERRYGTCIYQGRLWAFCC; ends and bridges not checked; cysteine pairing not given here; UniProt P59665 66-94, looked up)
protein kinase C activity (protein kinase C): inhibited

HNP-1: human neutrophil protein 1, a prototypical mammalian defensin
protein kinase C activity (protein kinase C): inhibited

Source: patent US5766624A, “Liposomal defensins” (The Liposme Company, Inc., priority 1995, dated 1998)
